Assay results: the supplement of paper PMC9663587

Columns and labels:
Assay in all cases: GRmax, 72 h; higher = less effect;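 also: breast cell lines in 384-well plates, nine doses across a 10^4 range, Dye Drop imaging of viable cells vs DMSO and time-zero plates, GR 0 means no net growth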
MDAMB361 = test system: MDAMB361
SUM185PE = test system: SUM185PE
PDX1328 = test system: PDX1328
MDAMB231 = test system: MDAMB231
AU565 = test system: AU565
CAL51 = test system: CAL51
BT474 = test system: BT474
MGH312 = test system: MGH312
MCF12A = test system: MCF12A
EFM19 = test system: EFM19
T47D = test system: T47D
MDAMB175VII = test system: MDAMB175VII
ZR7530 = test system: ZR7530
SUM52PE = test system: SUM52PE
HCC1187 = test system: HCC1187

SMILES | GRmax, 72 h (MDAMB361) [GR] | GRmax, 72 h (SUM185PE) [GR] | GRmax, 72 h (PDX1328) [GR] | GRmax, 72 h (MDAMB231) [GR] | GRmax, 72 h (AU565) [GR] | GRmax, 72 h (CAL51) [GR] | GRmax, 72 h (BT474) [GR] | GRmax, 72 h (MGH312) [GR] | GRmax, 72 h (MCF12A) [GR] | GRmax, 72 h (EFM19) [GR] | GRmax, 72 h (T47D) [GR] | GRmax, 72 h (MDAMB175VII) [GR] | GRmax, 72 h (ZR7530) [GR] | GRmax, 72 h (SUM52PE) [GR] | GRmax, 72 h (HCC1187) [GR]
CC(C)Nc1cc(-c2c[nH]c(C(=O)N[C@H](CO)c3cccc(Cl)c3)c2)c(Cl)cn1 [BVD523] (max 10 µM) | 0.27 | 0.734 | 0.752 | 0.213 | 0.521 | 0.759 | 0.977 | 0.914 | 0.104 | 0.798 | 0.217 | -0.31 | 0.562 | 0.315 | 0.649
CC[C@@H]1C(=O)N(C)c2cnc(Nc3ccc(C(=O)N[C@H]4CC[C@H](N5CCN(CC6CC6)CC5)CC4)cc3OC)nc2N1C(C)C [Volasertib/BI6727] (max 1 µM) | -0.497 | 0.28 | -0.529 | -0.0186 | -0.473 | -0.337 | -0.284 | -0.675 | -0.0126 | -0.577 | -0.159 | -0.115 | -0.42 | -0.409 | -0.708
CNCc1ccc(-c2[nH]c3cc(F)cc4c3c2CCNC4=O)cc1 [Rucaparib] (max 10 µM) | 0.11 | 0.772 | 0.634 | 0.634 | 0.718 | 0.704 | 0.852 | 0.569 | 0.825 | 0.96 | 0.854 | 0.56 | 0.674 | 0.961 | 0.802
CC(C)NC[C@@H](C(=O)N1CCN(c2ncnc3c2[C@H](C)C[C@H]3O)CC1)c1ccc(Cl)cc1 [Ipatasertib/GDC0068] (max 10 µM) | -0.58 | 0.455 | 0.704 | 0.925 | 0.274 | 0.387 | -0.358 | -0.936 | 0.654 | 0.066 | 0.133 | -0.5 | 0.438 | 0.271 | 0.409
Nc1ccc(-c2ccc3ncc4ccc(=O)n(-c5cccc(C(F)(F)F)c5)c4c3c2)cn1 [Torin2] (max 1 µM) | -0.964 | -0.0832 | -0.249 | -0.0262 | -0.39 | -0.152 | -0.648 | -0.772 | 0.0112 | -0.0622 | 0.0099 | -0.945 | -0.0202 | -0.351 | -0.0468
NC1(C(=O)N[C@@H](CCO)c2ccc(Cl)cc2)CCN(c2nc[nH]c3nccc2-3)CC1 [AZD5363] (max 10 µM) | -0.38 | 0.447 | 0.766 | 1.05 | 0.373 | 0.565 | 0.0474 | -0.905 | 0.617 | 0.23 | 0.179 | -0.28 | 0.187 | 0.18 | 0.426
CN(C)C/C=C/C(=O)Nc1ccc(C(=O)Nc2cccc(Nc3cc(-c4c[nH]c5ccccc45)ncn3)c2)cc1 [THZ-P1-2] (max 10 µM) | 0.142 | -0.295 | 0.656 | -0.691 | -0.648 | 0.751 | -0.697 | -0.983 | 0.364 | 0.124 | -0.453 | -0.765 | -0.964 | -0.598 | 0.283
O=C1NC(=O)[C@@H](c2cn3c4c(cccc24)CCC3)[C@@H]1c1c[nH]c2ccccc12 [Tivantinib/ARQ197] (max 10 µM) | -0.606 | 0.169 | -0.479 | -0.0845 | -0.514 | -0.282 | -0.323 | -0.537 | -0.0779 | -0.592 | -0.154 | -0.296 | -0.539 | -0.354 | -0.761
CN1CC[C@H](c2c(O)cc(O)c3c(=O)cc(-c4ccccc4Cl)oc23)[C@H](O)C1 [Flavopiridol] (max 1 µM) | -0.389 | 0.155 | -0.0976 | -0.441 | -0.69 | -0.0935 | -0.751 | -0.945 | -0.15 | -0.21 | -0.134 | -0.309 | -0.662 | -0.193 | -0.885
CN(C)C/C=C/C(=O)Nc1ccc(C(=O)Nc2cccc(Nc3ncc(Cl)c(-c4c[nH]c5ccccc45)n3)c2)cc1 [THZ1] (max 1 µM) | -0.72 | -0.219 | -0.171 | -0.505 | -0.64 | 0.107 | -0.658 | -0.939 | -0.312 | -0.293 | -0.279 | -0.438 | -0.638 | -0.437 | -0.852
CNc1nc(-c2ccc3c(N)n[nH]c3c2)cc(N2C[C@@H](C(=O)NC3CCCCC3)CC[C@H]2C)n1 (max 10 µM) | -0.417 | 0.54 | 0.545 | 0.662 | 0.391 | 0.794 | 0.151 | -0.599 | 0.8 | 0.292 | 0.164 | -0.459 | 0.348 | 0.386 | 0.504
CCC(=O)Nc1ccc(C(=O)Nc2ccc(Nc3ncc4c(n3)N(C)c3ccc(C)cc3C(=O)N4C)cc2)cc1 [FMF-03-145-1] | 0.286 | 0.205 | 0.128 | -0.0038 | -0.153 | 0.0325 | -0.227 | -0.365 | 0.0223 | 0.175 | -0.0373 | 0.0817 | -0.0468 | 0.0118 | -0.506
CC(C)n1nc(-c2ccc3oc(N)nc3c2)c2c(N)ncnc21 [INK128/MLN0128] (max 3.162 µM) | -0.846 | 0.139 | -0.159 | 0.101 | -0.496 | 0.0529 | -0.587 | -0.89 | 0.103 | -0.128 | -0.0486 | -0.886 | -0.109 | -0.161 | 0.0961
O=C1NC(=NCc2cccs2)SC1=Cc1ccc2ncccc2c1 [R0-3306] (max 10 µM) | 0.111 | 0.827 | 0.399 | 0.206 | -0.185 | 0.232 | 0.144 | -0.249 | 0.458 | 0.0987 | -0.0261 | -0.0257 | 0.065 | 0.114 | -0.648
COc1cc2c(Oc3ccc4[nH]c(C)cc4c3F)ncnc2cc1OCCCN1CCCC1 [Cediranib/AZD2171] (max 10 µM) | -0.98 | 0.0765 | -0.544 | -0.362 | 0.887 | -0.103 | 0.742 | -0.0842 | 0.937 | 0.685 | -0.64 | -0.648 | -0.145 | 0.21 | 0.349
CN(C)CC[C@H](CSc1ccccc1)Nc1ccc(S(=O)(=O)NC(=O)c2ccc(N3CCN(Cc4ccccc4-c4ccc(Cl)cc4)CC3)cc2)cc1[N+](=O)[O-] [ABT-737] (max 10 µM) | 0.844 | -0.294 | -0.678 | -0.12 | 0.261 | 0.876 | 0.181 | 0.0409 | 0.979 | 0.475 | 0.589 | -0.101 | 0.552 | 0.441 | 0.492
COc1cc(N2CCN(C)CC2)ccc1Nc1ncc2c(n1)N(C)c1ccccc1C(=O)N2CC(F)(F)F [FMF-03-146-1] | 0.362 | 0.833 | 0.893 | 0.874 | 0.63 | 0.922 | 1.07 | 0.866 | 0.95 | 0.947 | 0.683 | 0.887 | 0.937 | 1.04 | 0.955
CCc1cncnc1N1CCN(Cc2nc3ccc(C(F)(F)F)cc3[nH]2)CC1 (max 10 µM) | 0.192 | 0.182 | 0.619 | 0.854 | 0.476 | 0.734 | 0.508 | 0.311 | 0.964 | 0.921 | 0.366 | -0.426 | 0.113 | 0.446 | 0.575
CO[C@H]1C[C@@H]2CC[C@@H](C)[C@@](O)(O2)C(=O)C(=O)N2CCCC[C@H]2C(=O)O[C@H]([C@H](C)C[C@@H]2CC[C@@H](OCCO)[C@H](OC)C2)CC(=O)[C@H](C)/C=C(\C)[C@@H](O)[C@@H](OC)C(=O)[C@H](C)C[C@H](C)/C=C/C=C/C=C/1C [Everolimus] (max 10 µM) | 0.0574 | 0.78 | 0.371 | 0.711 | 0.4 | 0.548 | 0.14 | 0.148 | 0.571 | 0.249 | 0.297 | -0.189 | 0.169 | 0.553 | 0.568
CN1CCN(C(=O)c2ccc3cc(CCNc4ncnc5ccc(C#N)cc45)ccc3c2)CC1 [senexin b] (max 10 µM) | 0.271 | 0.444 | 1.02 | 0.892 | 0.76 | 0.755 | 0.107 | 0.168 | 0.776 | 0.629 | 0.213 | 0.205 | 0.0824 | 0.742 | 1.62
C[C@@H]1COCCN1c1cc(C2([S@](C)(=N)=O)CC2)nc(-c2cc[nH]c3nccc2-3)n1 [AZD6738] (max 10 µM) | -0.166 | 0.687 | 0.299 | 0.354 | 0.312 | 0.0335 | 0.267 | 0.348 | -0.0672 | 0.845 | 0.745 | 0.149 | 0.61 | -0.174 | -0.332
